From patent publication US12708665B2, “Anti-IL-1β antibody therapy in arrhythmogenic cardiomyopathy (ACM)” (Beth Israel Deaconess Medical Center, Inc., priority 2019, dated 2026)

Tested on: Dsg2^mut/mut mice
Assay: Cytokine arrays, cytokine expression in hearts of Dsg2^mut/mut mice treated with Bay 11-7082
Type: in vivo
Text: Quantitative data (mean±SEM; n=5) for expression of selected cytokines in hearts of vehicle-treated wildtype (WT) mice, Dsg2^mut/mut mice and Dsg2^mut/mut mice treated with Bay 11-7082. * P<0.05 compared to WT; †P<0.05 for treated vs. untreated Dsg2^mut/mut mice.
To characterize production of chemical mediators of the immune response in ACM, we used arrays to measure 111 different cytokines in the hearts of Dsg2^mut/mut mice and compared the amounts to those measured in the hearts of WT mice and Dsg2^mut/mut mice treated with Bay 11-7082. We observed substantial expression of multiple cytokines in the hearts of Dsg2^mut/mut mice. […] Powerful inflammatory mediators were expressed in Dsg2^mut/mut hearts including IL-1β (up by ~13-fold compared to WT hearts), IFNγ (~5-fold), IL-12 (~6-fold) and TNFα (~2-fold). […] Finally, there were increases in some molecules that fulfill anti-inflammatory roles such as IL-1Ra (up by ~4-fold).

[1] = cytokine expression level, mouse heart

## Cc1ccc(S(=O)(=O)/C=C/C#N)cc1 [Bay11-7082]
ACM (Dsg2^mut/mut) mice treated with Bay 11-7082, result in words
  LIX (CXCL5) level: markedly reduced
Dsg2^mut/mut mice treated with Bay 11-7082, result in words
  OPN expression: reduced
[1]
  Adiponectin, Dsg2^mut/mut (Bay11-7082) vs Dsg2^mut/mut: <1
  Adiponectin, Dsg2^mut/mut (Bay11-7082) vs WT: <1
  Amphiregulin, Dsg2^mut/mut (Bay11-7082) vs Dsg2^mut/mut: <1
  Amphiregulin, Dsg2^mut/mut (Bay11-7082) vs WT: <1
  Angiopoietin-1, Dsg2^mut/mut (Bay11-7082) vs Dsg2^mut/mut: <1
  Angiopoietin-1, Dsg2^mut/mut (Bay11-7082) vs WT: <1
  Angiopoietin-2, Dsg2^mut/mut (Bay11-7082) vs Dsg2^mut/mut: 1-2
  Angiopoietin-2, Dsg2^mut/mut (Bay11-7082) vs WT: <1
  Angiopoietin-like 3, Dsg2^mut/mut (Bay11-7082) vs Dsg2^mut/mut: <1
  Angiopoietin-like 3, Dsg2^mut/mut (Bay11-7082) vs WT: <1
  BAFF/BLyS/TNFSF13B, Dsg2^mut/mut (Bay11-7082) vs Dsg2^mut/mut: <1
  BAFF/BLyS/TNFSF13B, Dsg2^mut/mut (Bay11-7082) vs WT: <1
  C1qR1/CD93, Dsg2^mut/mut (Bay11-7082) vs Dsg2^mut/mut: <1
  C1qR1/CD93, Dsg2^mut/mut (Bay11-7082) vs WT: <1
  C-Reactive Protein/CRP, Dsg2^mut/mut (Bay11-7082) vs Dsg2^mut/mut: <1
  C-Reactive Protein/CRP, Dsg2^mut/mut (Bay11-7082) vs WT: <1
  CCL2/JE/MCP-1, Dsg2^mut/mut (Bay11-7082) vs Dsg2^mut/mut: <1
  CCL2/JE/MCP-1, Dsg2^mut/mut (Bay11-7082) vs WT: <1
  CCL3/CCL4/MIP-1a/B, Dsg2^mut/mut (Bay11-7082) vs Dsg2^mut/mut: <1
  CCL3/CCL4/MIP-1a/B, Dsg2^mut/mut (Bay11-7082) vs WT: <1
  CCL5/RANTES, Dsg2^mut/mut (Bay11-7082) vs Dsg2^mut/mut: <1
  CCL5/RANTES, Dsg2^mut/mut (Bay11-7082) vs WT: <1
  CCL6/C10, Dsg2^mut/mut (Bay11-7082) vs Dsg2^mut/mut: <1
  CCL6/C10, Dsg2^mut/mut (Bay11-7082) vs WT: <1
  CCL17/TARC, Dsg2^mut/mut (Bay11-7082) vs Dsg2^mut/mut: <1
  CCL17/TARC, Dsg2^mut/mut (Bay11-7082) vs WT: <1
  CCL19/MIP-3B, Dsg2^mut/mut (Bay11-7082) vs Dsg2^mut/mut: <1
  CCL19/MIP-3B, Dsg2^mut/mut (Bay11-7082) vs WT: <1
  CCL20/MIP-3a, Dsg2^mut/mut (Bay11-7082) vs Dsg2^mut/mut: <1
  CCL20/MIP-3a, Dsg2^mut/mut (Bay11-7082) vs WT: <1
  CCL21/6Ckine, Dsg2^mut/mut (Bay11-7082) vs Dsg2^mut/mut: <1
  CCL21/6Ckine, Dsg2^mut/mut (Bay11-7082) vs WT: <1
  CCL22/MDC, Dsg2^mut/mut (Bay11-7082) vs Dsg2^mut/mut: <1
  CCL22/MDC, Dsg2^mut/mut (Bay11-7082) vs WT: <1
  CD14, Dsg2^mut/mut (Bay11-7082) vs Dsg2^mut/mut: 1-2
  CD14, Dsg2^mut/mut (Bay11-7082) vs WT: <1
  CD40/TNFRSF5, Dsg2^mut/mut (Bay11-7082) vs Dsg2^mut/mut: <1
  CD40/TNFRSF5, Dsg2^mut/mut (Bay11-7082) vs WT: <1
  CD160, Dsg2^mut/mut (Bay11-7082) vs Dsg2^mut/mut: <1
  CD160, Dsg2^mut/mut (Bay11-7082) vs WT: <1
  CX3CL1/Fractalkine, Dsg2^mut/mut (Bay11-7082) vs Dsg2^mut/mut: <1
  CX3CL1/Fractalkine, Dsg2^mut/mut (Bay11-7082) vs WT: <1
  CXCL9/MIG, Dsg2^mut/mut (Bay11-7082) vs Dsg2^mut/mut: <1
  CXCL9/MIG, Dsg2^mut/mut (Bay11-7082) vs WT: <1
  CXCL13/BLC/BCA-1, Dsg2^mut/mut (Bay11-7082) vs Dsg2^mut/mut: <1
  CXCL13/BLC/BCA-1, Dsg2^mut/mut (Bay11-7082) vs WT: 2-4
  CXCL16, Dsg2^mut/mut (Bay11-7082) vs Dsg2^mut/mut: <1
  CXCL16, Dsg2^mut/mut (Bay11-7082) vs WT: <1
  Chemerin, Dsg2^mut/mut (Bay11-7082) vs Dsg2^mut/mut: <1
  Chemerin, Dsg2^mut/mut (Bay11-7082) vs WT: <1
  Chitinase 3-like 1, Dsg2^mut/mut (Bay11-7082) vs Dsg2^mut/mut: <1
  Chitinase 3-like 1, Dsg2^mut/mut (Bay11-7082) vs WT: <1
  Coagulation Factor III/Tissue Factor, Dsg2^mut/mut (Bay11-7082) vs Dsg2^mut/mut: <1
  Coagulation Factor III/Tissue Factor, Dsg2^mut/mut (Bay11-7082) vs WT: <1
  Complement Component C5/C5a, Dsg2^mut/mut (Bay11-7082) vs Dsg2^mut/mut: <1
  Complement Component C5/C5a, Dsg2^mut/mut (Bay11-7082) vs WT: <1
  Complement Factor D, Dsg2^mut/mut (Bay11-7082) vs Dsg2^mut/mut: <1
  Complement Factor D, Dsg2^mut/mut (Bay11-7082) vs WT: <1
  Cystatin C, Dsg2^mut/mut (Bay11-7082) vs Dsg2^mut/mut: <1
  Cystatin C, Dsg2^mut/mut (Bay11-7082) vs WT: <1
  DKK-1, Dsg2^mut/mut (Bay11-7082) vs Dsg2^mut/mut: <1
  DKK-1, Dsg2^mut/mut (Bay11-7082) vs WT: <1
  DPPIV/CD26, Dsg2^mut/mut (Bay11-7082) vs Dsg2^mut/mut: <1
  DPPIV/CD26, Dsg2^mut/mut (Bay11-7082) vs WT: 1-2
  E-Selectin/CD62E, Dsg2^mut/mut (Bay11-7082) vs Dsg2^mut/mut: <1
  E-Selectin/CD62E, Dsg2^mut/mut (Bay11-7082) vs WT: <1
  EGF, Dsg2^mut/mut (Bay11-7082) vs Dsg2^mut/mut: <1
  EGF, Dsg2^mut/mut (Bay11-7082) vs WT: 1-2
  Endoglin/CD105, Dsg2^mut/mut (Bay11-7082) vs Dsg2^mut/mut: <1
  Endoglin/CD105, Dsg2^mut/mut (Bay11-7082) vs WT: <1
  Endostatin, Dsg2^mut/mut (Bay11-7082) vs Dsg2^mut/mut: <1
  Endostatin, Dsg2^mut/mut (Bay11-7082) vs WT: <1
  Eotaxin (CCL11), Dsg2^mut/mut (Bay11-7082) vs Dsg2^mut/mut: <1
  Eotaxin (CCL11), Dsg2^mut/mut (Bay11-7082) vs WT: <1
  FGF acidic, Dsg2^mut/mut (Bay11-7082) vs Dsg2^mut/mut: <1
  FGF acidic, Dsg2^mut/mut (Bay11-7082) vs WT: <1
  FGF-21, Dsg2^mut/mut (Bay11-7082) vs Dsg2^mut/mut: <1
  FGF-21, Dsg2^mut/mut (Bay11-7082) vs WT: <1
  FLt-3 Ligand, Dsg2^mut/mut (Bay11-7082) vs Dsg2^mut/mut: <1
  FLt-3 Ligand, Dsg2^mut/mut (Bay11-7082) vs WT: <1
  Fetuin A/AHSG, Dsg2^mut/mut (Bay11-7082) vs Dsg2^mut/mut: <1
  Fetuin A/AHSG, Dsg2^mut/mut (Bay11-7082) vs WT: <1
  G-CSF, Dsg2^mut/mut (Bay11-7082) vs Dsg2^mut/mut: <1
  G-CSF, Dsg2^mut/mut (Bay11-7082) vs WT: 1-2
  GDF-15, Dsg2^mut/mut (Bay11-7082) vs Dsg2^mut/mut: <1
  GDF-15, Dsg2^mut/mut (Bay11-7082) vs WT: <1
  GM-CSF, Dsg2^mut/mut (Bay11-7082) vs Dsg2^mut/mut: <1
  GM-CSF, Dsg2^mut/mut (Bay11-7082) vs WT: <1
  Gas 6, Dsg2^mut/mut (Bay11-7082) vs Dsg2^mut/mut: <1
  Gas 6, Dsg2^mut/mut (Bay11-7082) vs WT: <1
  HGF, Dsg2^mut/mut (Bay11-7082) vs Dsg2^mut/mut: <1
  HGF, Dsg2^mut/mut (Bay11-7082) vs WT: 4-6
  I-TAC (CXCL11), Dsg2^mut/mut (Bay11-7082) vs Dsg2^mut/mut: <1
  I-TAC (CXCL11), Dsg2^mut/mut (Bay11-7082) vs WT: <1
  IFN-y, Dsg2^mut/mut (Bay11-7082) vs Dsg2^mut/mut: <1
  IFN-y, Dsg2^mut/mut (Bay11-7082) vs WT: 1-2
  IGFBP-1, Dsg2^mut/mut (Bay11-7082) vs Dsg2^mut/mut: <1
  IGFBP-1, Dsg2^mut/mut (Bay11-7082) vs WT: 1-2
  IGFBP-2, Dsg2^mut/mut (Bay11-7082) vs Dsg2^mut/mut: <1
  IGFBP-2, Dsg2^mut/mut (Bay11-7082) vs WT: <1
  IGFBP-3, Dsg2^mut/mut (Bay11-7082) vs Dsg2^mut/mut: <1
  IGFBP-3, Dsg2^mut/mut (Bay11-7082) vs WT: <1
  IGFBP-5, Dsg2^mut/mut (Bay11-7082) vs Dsg2^mut/mut: <1
  IGFBP-5, Dsg2^mut/mut (Bay11-7082) vs WT: <1
  IGFBP-6, Dsg2^mut/mut (Bay11-7082) vs Dsg2^mut/mut: <1
  IGFBP-6, Dsg2^mut/mut (Bay11-7082) vs WT: <1
  IL-1a (IL-1F1), Dsg2^mut/mut (Bay11-7082) vs Dsg2^mut/mut: <1
  IL-1a (IL-1F1), Dsg2^mut/mut (Bay11-7082) vs WT: <1
  IL-1ra (IL-1F3), Dsg2^mut/mut (Bay11-7082) vs Dsg2^mut/mut: <1
  IL-1ra (IL-1F3), Dsg2^mut/mut (Bay11-7082) vs WT: 1-2
